Laboratory results published in paper PMC10398685 (ACS Omega, 2023).
“Also recorded” adds a separate entry of the source.

What was measured:
[1] = Microsomal stability, mouse; assay type: in vitro ADME; conditions: triplicates; for Microsomal stability Rem. at 45 min / Microsomal stability T1/2: 0.5 mg/ml mouse microsomes, 5uM; for microsomal CLint at 5 µM / half-life at 5 µM: pH 7.4, 0.5 mg/ml mouse microsomes; for half-life at 5 µM: read-out: Microsomal stability T1/2
[2] = Microsomal stability, human; assay type: in vitro ADME; conditions: triplicates; for Microsomal stability Rem. at 45 min / Microsomal stability T1/2: 0.5 mg/ml human microsomes, 5uM; for microsomal CLint at 5 µM / half-life at 5 µM: pooled liver microsomes, pH 7.4, 0.5 mg/ml human microsomes; for half-life at 5 µM: read-out: Microsomal stability T1/2
Description: 50% methanol. The samples were then transferred to ECHO® -compatible 384-well plates and the amount of analytes were quantified by the ECHO -MS® System (Sciex) where acoustic droplet ejection module is coupled with Sciex 6500® triple quadrupole mass spectrometer operating with an electrospray ionization source. Spectrometer was run in the multiple reaction monitoring (MRM) mode. When necessary, the processed samples were further diluted in 50% methanol to fit in the calibration range. Calibration curves of the compounds in 50% methanol were measured alongside the samples within the same run. […]
3.4. Microsomal stability […]
The reactions were […]
terminated by the addition of four volumes of ice-cold methanol, mixed vigorously and left at -20 °C for 1 h. After that, the samples were centrifuged and the supernatants were analyzed by means of ECHO-MS® System (Sciex, Framingham, MA, USA). Zero time points were prepared by adding ice-cold methanol to the mixture of compound with cofactors prior to the addition of microsomes. The microsomal half-lives (t1/2) were calculated using the equation t1/2=0.693/k, where k is the slope found in the linear fit of the natural logarithm of the fraction remaining of the parent compound vs. incubation time. Intrinsic clearance (CLint) was calculated using the following formula: CLint = V * ln2 /t1/2, where V = incubation volume per milligram of microsomal protein (µL/mg) and t1/2 = microsomal half-life. […]
3.6. Caco-2 permeability assay
Transepithelial bi-directional transport of tested compounds (5 µM, pH 7.4/7.4) across the Caco-2 monolayers was studied using the BD BioCoat HTS Caco -2 assay system (BD Biosciences, Bedford, MA) as described in detail elsewhere.17 Aliquots were collected from the donor and acceptor compartment at the end of transport period (3 h), integrity of monolayers were verified using Lucifer Yellow dye and the compounds were quantified using LC-MS/MS (Sciex 6500® triple quadrupole). The apparent permeability coefficient (Papp) was calculated from the following equation: Papp = (dQ / dt) / C0 * A, where dQ/dt is the rate of absorption of the drug across the cells, C0 is the donor compartment concentration at time zero, and A is the area of the monolayer. Efflux ratio was expressed as (Papp B-A) / (Papp A-B). Recovery (%) was determined as (total compound mass in donor and receiver compartments at the end of the incubation / initial compound mass in the donor compartment) x 100.

[3] = molecular target: SARS-CoV-2 nsp14 7-N MTase (Severe acute respiratory syndrome coronavirus 2, UniProt P0DTD1); experiment: biochemical; conditions: Echo MS assay, 20 nM nsp14, 4 μM SAM, 4 μM GpppA, duplicates
[4] = Steady-state intracellular uptake in CCRF-CEM cells; assay type: in vitro ADME; conditions: human, CCRF-CEM cells, 60 min incubation, 50 μM at t = 0, read-out: Kp (intracellular accumulation ratio IC/EC)
Description: (§1) While an enzymatic MTase assay represents a valuable fast screening platform providing the information that can be directly used for SAR analyses, it is not fully predictive for the compounds’ activity in whole cells. In order to verify the ability of the compounds to reach the intracellular compartment, we measured the steady-state accumulation of representative compounds in intact CCRF-CEM, VERO-E6, and Calu-3 cells (Tables 3 and S2). […] Compound 12q was almost completely cleared from the medium after 60 min incubation with the cells rendering it among the most permeable compounds of the series based on Kp values. It should be noted that the apparent intracellular concentration of the compounds may be biased by their potential metabolism. Therefore, we decided to subject the selected derivatives to in vitro stability studies. […]
(§2) 3.3. Intracellular Uptake
(§3) Steady-state cellular uptake was measured in CCRF-CEM cells (ATCC, CRL-119), VERO-E6 cells (ATCC, CRL-1586) and Calu-3 cells (HTB-55), respectively. Suspension cells (CCRF-CEM) were treated as follows: Prior to the experiment, cells were washed by centrifugation (250 x g, 5 min) in prewarmed (37 °C) serum-free RPMI medium and resuspended in the same vehicle to a concentration of 2 x 10^7 cells per mL. The cell suspension was distributed into the microtubes in 500 μL aliquots (10^7 cells), and the uptake process was initiated by the addition of 2.5 μL of the 10 mM DMSO solutions of the compounds (50 μM final conc.). Samples were incubated for 60 min at 37 °C in a CO 2 incubator using a rotary stirrer. The uptake was terminated by centrifugation at 900 x g for 5 min, at +4 °C. The medium was stored at −20 °C for later analysis of the extracellular concentration of the compounds. The cells were washed two times with 1 mL PBS (900 x g, 5 min, +4 °C), and also stored at −20 °C for subsequent analysis of the intracellular concentration of the compounds. At the day of the analysis, both media and the pelleted cells were quickly thawed. The cell pellets were extracted with 200 μL of ice-cold methanol by vigorous shaking, further diluted 1:1 with water and centrifuged at 20 000 x g for 10 min. As for the media samples, 10 μL aliquots were extracted with 990 μL of 50% methanol. The samples were then transferred to ECHO® -compatible 384-well plates and the amount of analytes were quantified by the ECHO -MS® System (Sciex) where acoustic droplet ejection module is coupled with Sciex 6500® triple quadrupole mass spectrometer operating with an electrospray ionization source. Spectrometer was run in the multiple reaction monitoring (MRM) mode. When necessary, the processed samples were further diluted in 50% methanol to fit in the calibration range. Calibration curves of the compounds in 50% methanol were measured alongside the samples within the same run. The ra tio between the total compound concentration in the cells and compound concentration in the medium (K p) at t=60 min was calculated according to: Kp = (Acell / Vcell) / Cmedium, where Acell is the amount of compound in the cell lysate, Vcell is the CCRF-CEM cell volume (3.38 μL/10^7 cells)16 and Cmedium is the compound concentration in the medium sample after correcting for sample dilution. Experiments were performed in duplicates. […]

[5] = system: CCRF-CEM cells; experiment: as above; assay type: in vitro ADME; conditions: 60 min incubation, 50 μM at t = 0
Description: as §1, §2, §3

[6] = system: 6 human methyltransferases (PRMT6, SUV39H1, SUV39H2, SETDB1, SETD7, and MLL1); assay type: biochemical; conditions: tested at 1 μM by SPA assay, duplicate
[7] = molecular target: T1, SARS-CoV-2 nsp10-nsp16 complex (Severe acute respiratory syndrome coronavirus 2, UniProt P0DTD1); assay type: biochemical; conditions: tested at 1 μM by SPA assay, duplicate
T1 construct: Nsp10-nsp16 reactions contained 100 nM nsp10-nsp16 complex

| Compound | Microsomal stability Rem. at 45 min [1] | microsomal CLint at 5 µM [1] | half-life at 5 µM [1] | Microsomal stability Rem. at 45 min [2] | microsomal CLint at 5 µM [2] | half-life at 5 µM [2] | IC50 [3] | Kp at 1 h, 50 µM [4] | EC (extracellular concentration in the media at t = 60 min) ± sd [5] | Microsomal stability T1/2 [1] | Microsomal stability T1/2 [2] | Selectivity against 6 human methyltransferases [6] | Selectivity against SARS-CoV-2 nsp10-nsp16 complex [7] | IC (intracellular concentration in the cells at t = 60 min) ± sd [5] |
| --- | --- | --- | --- | --- | --- | --- | --- | --- | --- | --- | --- | --- | --- | --- |
| CCN(C[C@H]1O[C@@H](n2cc(C#Cc3nc4ccccc4[nH]3)c3c(N)ncnc32)[C@H](O)[C@@H]1O)S(=O)(=O)c1ccc(OC)c(C#N)c1 [Compound 12a] | 48.7 ± 3.2% | 32.6 ± 2.1 µL/min/mg | 44.1 ± 2.7 min | 18.5 ± 4.0% | 77.3 ± 10.3 µL/min/mg | 17.3 ± 2.2 min | 37 ± 6.5 nM | 188 | 34 ± 0 µM |  |  |  |  |  |
| CCN(C[C@H]1O[C@@H](n2cc(C#Cc3cnc4ccccc4c3)c3c(N)ncnc32)[C@H](O)[C@@H]1O)S(=O)(=O)c1ccc(OC)c(C#N)c1 [Compound 12e] | 79.3 ± 3.8% |  |  | 60.2 ± 3.5% | 19.6 ± 6.1 µL/min/mg | 91.3 ± 12.2 min | 28 ± 5 nM |  | 0.2 ± 0.0 µM | Stable |  |  |  |  |
| CCN(C[C@H]1O[C@@H](n2cc(C#Cc3ccc(N)nc3)c3c(N)ncnc32)[C@H](O)[C@@H]1O)S(=O)(=O)c1ccc(OC)c(C#N)c1 [Compound 12h] | 43.0 ± 0.8% | 37.8 ± 1.8 µL/min/mg | 37.3 ± 1.8 min | 47.2 ± 3.5% | 34.9 ± 4 µL/min/mg | 38 ± 3.7 min | 46 ± 5.8 nM | 480 | 14 ± 1 µM |  |  |  |  |  |
| CCN(C[C@H]1O[C@@H](n2cc(C#Cc3cccnc3)c3c(N)ncnc32)[C@H](O)[C@@H]1O)S(=O)(=O)c1ccc(OC)c(C#N)c1 [Compound 12l] | 37.4 ± 0.5% | 40.9 ± 0.8 µL/min/mg | 33.7 ± 0.7 min | 78.6 ± 1.1% | 11.2 ± 1.5 µL/min/mg | 113 ± 3.5 min | 38 ± 5.9 nM | 163 | 29 ± 0 µM |  |  |  |  |  |
| CCN(C[C@H]1O[C@@H](n2cc(C#Cc3ccc(C(N)=O)cc3)c3c(N)ncnc32)[C@H](O)[C@@H]1O)S(=O)(=O)c1ccc(OC)c(C#N)c1 [Compound 12o] | 65.9 ± 3.2% | 19.2 ± 1.7 µL/min/mg | 74.9 ± 7.5 min | 30.5 ± 5.3% | 53.8 ± 5.8 µL/min/mg | 26.2 ± 3.4 min | 49 ± 6.2 nM | 694 | 13 ± 3 µM |  |  |  |  |  |
| COc1ccc(S(=O)(=O)N(C)C[C@H]2O[C@@H](n3cc(C#Cc4cnc5ccccc5c4)c4c(N)ncnc43)[C@H](O)[C@@H]2O)cc1C#N [Compound 12q] | 101.0 ± 3.4% |  |  | 105.0 ± 3.9% |  |  | 19 ± 2.5 nM | 5320 | 0.6 ± 0.1 µM | Stable; also recorded: excellent stability | Stable; also recorded: excellent stability | selective | selective |  |
| COc1ccc(S(=O)(=O)N(C)C[C@H]2O[C@@H](n3cc(C#Cc4ccc(C(N)=O)cc4)c4c(N)ncnc43)[C@H](O)[C@@H]2O)cc1C#N [Compound 12r] | 80.9 ± 12.0% |  |  | 83.3 ± 2.6% |  |  | 23 ± 3.7 nM | 897 | 12 ± 6 µM | Stable; also recorded: excellent stability | Stable; also recorded: excellent stability | selective | selective | 10,708 ± 358 μM |
| COc1ccc(S(=O)(=O)N(C)C[C@H]2O[C@@H](n3cc(C#Cc4cccnc4)c4c(N)ncnc43)[C@H](O)[C@@H]2O)cc1C#N [Compound 12s] | 50.2 ± 3.2% | 30.5 ± 4.7 µL/min/mg | 50.8 ± 5.1 min | 55.9 ± 4.7% | 27.1 ± 2 µL/min/mg | 53.7 ± 2.7 min | 21 ± 3 nM | 604 | 15 ± 3 µM |  |  | selective | selective |  |
